Test results published in publication PMC12040169 (PLOS Biology, 2025).

Test: in vitro
Details: human, hela cells, % viability

Structure (SMILES)	viability at 28.5 h, 10 µM
O=C(NC[C@H]1CC[C@H](c2cc(C(=O)N3CCOCC3)c3ccccc3n2)CC1)C1CCCC1 [CBK285979]	89.9%
O=C(COc1ccc(F)cc1)Nc1cccc2[nH]ccc12 [CBK159653]	86%
c1csc(CCN2CCC3(C2)NCCc2c3[nH]c3ccccc23)c1 (stereo not drawn) [CBK040196]	111%
Cc1cc(C(=O)Nc2sc(C)c(C)c2C(=O)NCc2cccnc2)no1 [CBK268134]	100%
COc1cc(OC)nc(CN2CCOC3(CCN(C(=O)OCc4ccccc4)CC3)C2)n1 [CBK161101T]	96.2%
CCNC1(Cc2cc(C(=O)N3CCCCC3)on2)COC1 [CBK289671]	84.2%
Cc1cc(COC(=O)N2CCc3ccccc32)cc(C)n1 [CBK200134]	81.4%
Cc1csc(CCNCc2c(C(C)C)nn(C)c2N(C)C)n1 [CBK304140]	89%
NC(=O)CN1CCC(Oc2cncc(OCc3ccc(Cl)c(Cl)c3)n2)C1 (stereo not drawn) [CBK084429]	101%
C[C@@H]1CNCCN1c1nccnc1OCCOc1cccnc1OCCN [CBK040757T]	88.8%
Cc1cc(NC(=O)c2sc3nc4c(cc3c2N)N2CCC4CC2)no1 [CBK270217]	100%
CC(C)CN(CC(=O)NC1(c2ccccc2)CCC1)C(=O)N(C)C [CBK062704]	96.1%
CC(CCc1ccc(F)cc1)NC(=O)c1cc2c([nH]c1=O)CCC2 (stereo not drawn) [CBK281512]	91.9%
O=C(Nc1ccc(-c2nc3ccc(-c4nc5ccc(NC(=O)c6cccc7ccccc67)cc5[nH]4)cc3[nH]2)cc1)c1cccc2ccccc12 [CBK261161]	94.4%
O=c1c2[nH]c3ccccc3c2ncn1Cc1ccccc1 [CBK287809]	103%
O=C1NC(=O)C(CC(=O)N2CCC3(CCN(C(=O)Cc4c[nH]c5ccccc45)C3)C2)N1 (stereo not drawn) [CBK131436]	92.8%
O=C(c1ccco1)N1CCN(C(=S)Nc2ccc(S(=O)(=O)Nc3ncccn3)cc2)CC1 [CBK267096]	104%
Cc1cc(-c2cn3cc(C(=O)NCCCCO)nc3c(=O)n2C)c(C)o1 [CBK307037]	106%
COc1ccc(-c2cnc(N)c(-c3ccc(C(=O)NCCO)cc3)n2)cn1 [CBK064147]	95.6%
O=C1CCN(Cc2ccccc2)CCN1C(=O)c1cccs1 [CBK284828]	88.8%
CN1CCN(c2nc(-c3ccco3)cnc2N)CC1 [CBK063449]	109%
CC(C)NC(=O)Nc1ccc(C(=O)N(CCC#N)Cc2ccco2)cc1 [CBK305999]	82.3%

Structure (SMILES)	viability at 28.5 h, 10 µM
COc1cc(/C=N/NC(=O)CCN2CCN(C)CC2)cc2c1OCO2 [CBK261504]	116%
O=S(=O)(Nc1nc2c(s1)CCCC2)c1ccc(Br)cc1 [CBK097787]	89.7%
CC(=O)Nc1ccc(-c2ccc(C(=O)N3CCN(C(=O)N4CCCC4)CC3)cn2)cc1 [CBK160187]	94.5%
CCOC(=O)CNC(=O)c1cc(Br)c(OC)c(OC)c1 [CBK058454]	116%
NNC(=O)CNC(c1cc(Br)ccc1N)c1ccccc1Cl (stereo not drawn) [CBK262977]	87.1%
CN(C)c1ccccc1-c1cc(Nc2ccc3cn[nH]c3c2)ncn1 [CBK090850]	55.7%
COc1cccc(Cn2c(=O)c3sccc3n(CC(=O)NCc3ccc(C)cc3)c2=O)c1 [CBK300533]	80.8%
O=C(NC(=S)CC1C=NCS1)c1ccccc1 (stereo not drawn) [CBK020794]	107%
CN(C)CCN(C)c1nc(-c2ccc(Oc3ccccc3)cc2)cn2ccnc12 [CBK066469]	99.8%
COc1cccc(NC(=O)NC(=O)C2CCN(C(C)C)CC2)c1 [CBK034798]	89.6%
OCc1ccccc1-c1nccnc1NCc1ccc2c(c1)OCO2 [CBK038046]	95.7%
CC#CC1CCCC2N(c3ccccc3)CCN12 (stereo not drawn) [CBK028191]	119%
NCc1ccc(CN(Cc2ccc(-c3ccccc3)cc2)C(=O)Nc2c(F)cccc2F)cc1 [CBK046115C]	104%
CCC(=O)N1CCC(NC(=O)N(CCc2ccccn2)Cc2ccccc2)CC1 [CBK171898]	90.9%
O=C(NNC1=C(C(=O)C(F)(F)F)CCC1)c1cccnc1 [CBK262459]	89.1%
Cc1nc2n(/N=C/c3ccc([N+](=O)[O-])cc3)c3ccccc3n2c1C#N [CBK263107]	88.4%
CC(Oc1ccc(Br)cc1)C(=O)Nc1ccc(C(N)=O)cc1 (stereo not drawn) [CBK266760]	112%
Cc1nc(NC(CC(C)C)C(=O)O)c2nc(C)oc2n1 (stereo not drawn) [CBK022157]	115%
O=C(Nc1ccccc1C(=O)O)c1cccc(NC(=O)c2ccco2)c1 [CBK299774]	88.1%
CC(=O)Nc1ccccc1NC(=O)CCCN1C(=O)CCC1=O [CBK267681]	92.8%
COc1cc(/C=C/C(=O)O)ccc1OCC(=O)Nc1ccccc1 [CBK265695]	101%
CN1C(=O)c2ccccc2C(=O)[C@@]2(C)CN(CC(C)(C)C)C[C@@H]12 [CBK283481]	93.8%

Structure (SMILES)	viability at 28.5 h, 10 µM
COc1cc(CCc2cc(O)n3nc(-c4cccc(C)c4)c(C)c3n2)on1 [CBK285691]	99.8%
Brc1ccc(-n2cc(-c3ccccc3)c3c(NCc4ccccn4)ncnc32)cc1 [CBK266427]	104%
NS(=O)(=O)c1cnccc1NCCc1ccccc1 [CBK058003]	103%
COc1ccccc1NC(=O)CC1S/C(=N\N=C2/CCCc3ccccc32)N=C1O (stereo not drawn) [CBK263748]	102%
CC(C)Oc1cccc(C(=O)Nc2ccc(N3CCN(C(=O)C(C)(C)C)CC3)cc2)c1 [CBK270280]	88.7%
CCN(CC)C(=O)C1CCCN(C(=O)Nc2cccc(OC)c2)C1 (stereo not drawn) [CBK005159]	92.9%
COc1cncc(-c2ccc(N3CCN(c4ccccc4C#N)CC3)nc2)c1 [CBK037738]	107%
O=C(O)CC1(CC(=O)Nc2ccc(N3CCCC3=O)c(Cl)c2)CCCCC1 [CBK296664]	96.3%
CC(C)(C)C(=O)N1CCC(c2nnc(-c3ccsc3)o2)CC1 [CBK283378]	89.5%
CCOC(=O)c1cnn(C2CCCN(Cc3cc[nH]n3)C2)c1 (stereo not drawn) [CBK305125]	87.4%
CCC(=O)N1CCC2(CCCC[C@H]3CN(C(C)=O)CC[C@H]3NC(=O)CNC2=O)CC1 [CBK292147]	96.6%
O=C(NCCCN1CCCC(O)C1)N1CCCN(Cc2cccs2)CC1 (stereo not drawn) [CBK307116]	82%
CC1(NC(=O)CC2C(=O)NCCN2Cc2cccc(F)c2)CCC1 (stereo not drawn) [CBK281611]	80.9%
O=C1c2ccccc2C(=O)N1CN(CCc1ccc(Cl)cc1)CN1C(=O)c2ccccc2C1=O [CBK225934]	90.8%
O=C(NCc1ccccc1)c1ccccc1NC(=O)C1CCCCC1C(=O)O (stereo not drawn) [CBK269283]	92%
CCCCNS(=O)(=O)c1ccc(Cl)c(Cl)c1 [CBK044309]	96.5%
COc1cccc(C(=O)Nc2ccc(O)cc2C(=O)O)c1 [CBK268662]	104%
O=C(c1ccco1)N1CCN(c2cncc(-c3cccc4cccnc34)n2)CC1 [CBK037339]	96.9%
C/C(C(=O)O)=C(/C)C(=O)N1CCC2(CC1)NCCc1c2[nH]c2ccc(C)cc12 [CBK047026]	100%
O=C(O)c1ccc(Cl)c2c1C1C=CCC1C(c1ccc(S(=O)(=O)N3CCOCC3)cc1)N2 (stereo not drawn) [CBK268401]	108%
COc1ccc(CCNC(=O)/C=C/C(=O)O)cc1OC [CBK265373]	103%
COc1cc(C(=O)N2CCC3(CC2)CC(=O)c2cc(-c4cccc(C)c4)ccc2O3)cc(OC)c1C [CBK170341]	87.7%

Structure (SMILES)	viability at 28.5 h, 10 µM
CC(=O)N1CCc2sccc2C1c1ccccc1NC(=O)c1ccco1 (stereo not drawn) [CBK286436]	98.1%
Nc1nnc(Nc2ccc(Cl)cc2)[nH]1 [CBK017433]	91.7%
CN(C)S(=O)(=O)c1ccc(C(=O)C2=C(O)C(=O)N(CCN3CCOCC3)C2c2ccco2)cc1 (stereo not drawn) [CBK264521]	93.4%
CCCC(CCC)NC(=O)c1ccc(-n2nc(C(=O)OCC)c(Cl)c2C)cc1 [CBK114323]	93.9%
Cc1ccc(CN2CC[C@@H]3[C@H](C2)[C@@H](c2ccsc2)CN3C(=O)c2ccccc2F)cc1 [CBK285658]	96.5%
CCN1CCN(Cc2c(C(C)(C)C)[nH]c3ncccc23)CC1 [CBK285341]	106%
CCN(CC)CCn1c2ccccc2c2nc(C)sc21 [CBK266628C]	100%
Cc1nc(C2CCCN(C(=O)CCn3cccn3)C2)c2sccn12 (stereo not drawn) [CBK285234]	86.7%
O=C(CSc1ncn(-c2ccccc2)n1)Nc1ccccc1Cl [CBK265593]	104%
Cc1ccc(S(=O)(=O)N(C)CCCC#N)cc1 [CBK085945]	106%
O=C(Nc1ccc2nc(CN3CCOCC3)[nH]c2c1)C1CCCCC1 [CBK305728]	80.5%
CCC(C)[C@H](NC(=O)N1CCN(C(=O)c2cc3ccccc3[nH]2)CC1)C(=O)O (stereo partly drawn) [CBK286725]	91%
COc1ccc(C(=O)C2=C(O)C(=O)N(CCCN(C)C)C2c2ccc(Cl)c(Cl)c2)c(C)c1 (stereo not drawn) [CBK264896]	98.8%
CCOc1ccc2nc(SCc3nc(N)nc(Nc4cccc(Cl)c4C)n3)sc2c1 [CBK265202]	83.1%
CCOC(=O)c1[nH]c(=O)[nH]c1CSc1nc(C)cc(C)n1 [CBK019514]	109%
CC1CCN(C(=O)C[C@@H]2O[C@H](CNC(=O)C3CC3)[C@@H](O)[C@H]2O)CC1 [CBK288926]	92%
CCOC(=O)c1cccc(-c2ccc(OC(F)(F)F)cc2)n1 [CBK149251]	96.6%
CN(C)c1cccc(-c2cccc(NCC(c3cccnc3)N(C)C)n2)c1 (stereo not drawn) [CBK037697]	117%
CNC(=O)C1(Cc2ccc(-c3ccccc3)cc2)CCN(C(=O)Cc2ccc(C)cc2)CC1 [CBK285769]	90.4%

Same assay, conditions: human, hela cells, % viability, bulk resorufin, single well

Structure (SMILES)	viability at 28.5 h, 10 µM
CCOC(=O)C1(c2ccccc2)CCN(C(=O)CCN2CCN(C)CC2)CC1 [CBK132211]	86.2%
Cc1ccc(Cl)c(OC(=O)NCCOC(=O)NO)c1 [CBK288417]	94.3%
